Assay results as given in ChEMBL document CHEMBL1133847, “Fipronil-based photoaffinity probe for Drosophila and human beta 3 GABA receptors” (Bioorg Med Chem Lett, 2001).

Molecular target: T1, Gamma-aminobutyric acid receptor subunit beta-3 (Homo sapiens, UniProt P28472)
T1 sequence (P28472 whole entry): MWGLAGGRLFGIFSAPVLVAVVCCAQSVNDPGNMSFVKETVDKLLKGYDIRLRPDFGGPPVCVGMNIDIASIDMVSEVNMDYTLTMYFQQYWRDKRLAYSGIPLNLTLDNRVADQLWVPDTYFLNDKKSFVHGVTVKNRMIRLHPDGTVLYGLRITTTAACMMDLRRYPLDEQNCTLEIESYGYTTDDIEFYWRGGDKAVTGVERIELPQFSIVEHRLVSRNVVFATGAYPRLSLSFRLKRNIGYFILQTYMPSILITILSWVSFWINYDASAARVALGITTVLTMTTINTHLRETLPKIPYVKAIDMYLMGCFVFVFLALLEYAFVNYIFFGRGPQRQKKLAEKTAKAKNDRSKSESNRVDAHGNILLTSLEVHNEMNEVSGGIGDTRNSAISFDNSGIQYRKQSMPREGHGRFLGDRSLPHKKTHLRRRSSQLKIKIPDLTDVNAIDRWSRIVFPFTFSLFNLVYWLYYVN
Assay: Inhibition of [3H]EBOB binding to human GABA-A receptor beta3 subunit (range 1-28)

SMILES | IC50
FC(F)(F)c1cc(Cl)c(-n2cc(C3(C(F)(F)F)N=N3)cn2)c(Cl)c1 | 28 nM
N#Cc1nn(-c2c(Cl)cc(C(F)(F)F)cc2Cl)c(N)c1[S+]([O-])C(F)(F)F (configuration not stated) [FIPRONIL] | 28 nM
